Our source for the IC50 values is patent US7115749B2, “Substituted 5-oxo pyrazoles and [1,2,4]triazoles as antiviral agents” (priority 2004, dated 2006).

Structures are written as SMILES. pIC50: −log10 of the molar value.

Chain of HCV RNA-dependent RNA polymerase NS5B (Δ21) (P26663 2420-2989, stated change not applied): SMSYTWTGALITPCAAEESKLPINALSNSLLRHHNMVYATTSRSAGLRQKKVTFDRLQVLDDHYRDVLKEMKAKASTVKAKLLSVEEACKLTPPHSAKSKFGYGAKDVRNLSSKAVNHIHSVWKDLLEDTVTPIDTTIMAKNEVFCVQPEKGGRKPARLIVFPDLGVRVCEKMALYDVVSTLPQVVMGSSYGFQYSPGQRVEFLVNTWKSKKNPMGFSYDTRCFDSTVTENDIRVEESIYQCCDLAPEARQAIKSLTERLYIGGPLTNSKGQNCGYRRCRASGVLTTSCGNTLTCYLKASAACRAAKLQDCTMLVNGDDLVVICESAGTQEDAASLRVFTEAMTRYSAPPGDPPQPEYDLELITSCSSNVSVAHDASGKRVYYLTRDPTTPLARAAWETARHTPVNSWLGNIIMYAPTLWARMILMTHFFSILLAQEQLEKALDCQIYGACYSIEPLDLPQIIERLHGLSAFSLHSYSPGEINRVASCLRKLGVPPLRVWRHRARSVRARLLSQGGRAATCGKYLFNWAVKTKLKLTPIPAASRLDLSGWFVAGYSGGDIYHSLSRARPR

This experiment concerns the target HCV RNA-dependent RNA polymerase NS5B (Δ21) (Hepatitis C virus genotype 1b, UniProt P26663). The experiment can be described thus: Assay for HCV RNA-dependent RNA polymerase activity (SPA, [3H]-GTP incorporation). It is filed as biochemical. On the procedure:
Assay for HCV RNA-dependent RNA Polymerase Activity
Inhibitory activity of the present compounds against HCV RNA-dependent RNA polymerase was assayed according to the methods disclosed in U.S. Patent Application U.S.2004/038993, content of which is incorporated herein by reference; and those described in Ferrari, E.; Wright-Minogue, J.; Fang, J. W. S.; Baroudy, B. M.; Lau, J. Y. N.; Hong, Z. J. Virol. 1999, 73, 1649.
Briefly, 50 μl reactions containing 20 mM HEPES (pH 7.3), 7.5 mM DTT, 20 units/ml RNasIN, 0.5 ug/ml biotinylated oligoG12, 5 μg/ml polyC, 5 μM GTP, 20 μCi/ml [^3H]-GTP, 10 mM MgCl2, 60 mM NaCl, 100 μg/ml BSA, and 50 nM NS5B (Δ21) were incubated at room temperature for three hours in 96-well plates with or without test compounds. Assay was terminated by the addition of 50 μl 10 mg/ml streptavidin-coated SPA beads supplemented with 100 mM EDTA, and the incorporation of labeled GTP determined by a TopCount Scintillation Counter. IC50 values were calculated from single experiments using 11 serial 2-fold dilutions (0.05–50 μM), and data were considered reliable only when the IC50 value of a positive internal control was within standard deviation range.
By pIC50 is commonly meant the negative decadic logarithm of the IC50, by convention in mol/L. High values mean a low IC50, low ones a high IC50. For the molecule `O=C(Cn1nc(C(=O)O)cc1OCc1ccccc1CS(=O)(=O)c1ccccc1)Nc1ccccc1OCc1ccccc1` [Compound 8], the negative logarithm of the IC50 (pIC50) is 6.10.
In the case of `O=C(Cn1nc(C(=O)O)cc1OCc1ccccc1)Nc1ccccc1OCc1ccccc1` [Compound 5], the negative logarithm of the IC50 (pIC50) was 4.96.
With `Cc1cc(COc2cc(C(=O)O)nn2CC(=O)N[C@H]2CCCC[C@@H]2OCc2ccccc2)ccc1F` [Compound 43] the figure was 5.51; with `O=C(Cn1nc(C(=O)O)cc1OCc1ccccc1)N[C@H]1CCCC[C@@H]1OCc1ccccc1` [Compound 1], 4.37; with `O=C(Cn1nc(C(=O)O)cc1OCc1ccsc1)N[C@H]1CCCC[C@@H]1OCc1ccccc1` [Compound 64], below 4.90.
`CCOc1ccccc1COc1cc(C(=O)O)nn1CC(=O)N[C@H]1CCCC[C@@H]1OCc1ccccc1` [Compound 2] gave a negative-log IC50 (pIC50) of 6.00.
In turn, `O=C(Cn1nc(C(=O)O)cc1OCc1ccccc1-c1cccc(C(=O)O)c1)N[C@H]1CCCC[C@@H]1OCc1ccccc1` [Compound 55] had a pIC50 below 4.90.
Under `O=C(Cn1nc(C(=O)O)cc1OCc1cc(Cl)ccc1F)N[C@H]1CCCC[C@@H]1OCc1ccccc1` [Compound 41] stands 5.11; under `CC(C)(C)COc1cc(C(=O)O)nn1CC(=O)N[C@H]1CCCC[C@@H]1OCc1ccccc1` [Compound 59], below 4.90; under `O=C(Cn1nc(C(=O)O)cc1OCc1c(F)cccc1F)N[C@H]1CCCC[C@@H]1OCc1ccccc1` [Compound 26], below 4.30.
Under `O=C(Cn1nc(C(=O)O)cc1OCc1cccc(C(=O)O)c1)N[C@H]1CCCC[C@@H]1OCc1ccccc1` [Compound 48] stands below 4.30.
As to `COc1cccc(COc2cc(C(=O)O)nn2CC(=O)N[C@H]2CCCC[C@@H]2OCc2ccccc2)c1` [Compound 47], the pIC50 is below 4.30.
`O=C(Cn1nc(C(=O)O)cc1OCc1ccccc1CS(=O)(=O)c1ccccc1)N[C@H]1CCCC[C@@H]1OCc1ccccc1` [Compound 4] showed a pIC50 of 4.49.
The molecule `O=C(Cn1nc(C(=O)O)cc1OCc1ccccc1-c1ccc(Cl)cc1)N[C@H]1CCCC[C@@H]1OCc1ccccc1` [Compound 10] showed a negative-log IC50 (pIC50) of 7.19.
With `O=C(Cn1nc(C(=O)O)cc1OCc1ccccc1-c1cccc(Cl)c1)N[C@H]1CCCC[C@@H]1OCc1ccccc1` [Compound 53] the figure was 6.11; with `O=C(Cn1nc(C(=O)O)cc1OCc1ccccc1I)N[C@H]1CCCC[C@@H]1OCc1ccccc1` [Compound 61], 5.19.
`O=C(Cn1nc(C(=O)O)cc1OCc1cccc(F)c1)N[C@H]1CCCC[C@@H]1OCc1ccccc1` [Compound 28]: the negative-log IC50 (pIC50) is below 4.90.
Under `O=C(Cn1nc(C(=O)O)cc1OCc1ccc(C(F)(F)F)cc1)N[C@H]1CCCC[C@@H]1OCc1ccccc1` [Compound 19] stands 6.21; under `O=C(Cn1nc(C(=O)O)cc1OCc1ccccc1-c1cccs1)N[C@H]1CCCC[C@@H]1OCc1ccccc1` [Compound 57], 5.68; under `O=C(Cn1nc(C(=O)O)cc1OCc1ccc(Cl)c(Cl)c1)N[C@H]1CCCC[C@@H]1OCc1ccccc1` [Compound 36], 6.07.
With `COc1cccc(-c2ccccc2COc2cc(C(=O)O)nn2CC(=O)N[C@H]2CCCC[C@@H]2OCc2ccccc2)c1` [Compound 49] the figure was 5.44.
With `O=C(Cn1nc(C(=O)O)cc1OCc1ccccc1-c1ccccc1)Nc1ccccc1OCc1ccccc1` [Compound 7] the figure was 4.96; with `O=C(Cn1nc(C(=O)O)cc1OCc1cccnc1)N[C@H]1CCCC[C@@H]1OCc1ccccc1` [Compound 65, 1-[(2-benzyloxy-cyclohexylcarbamoyl)-methyl]-5-(pyridin-3-ylmethoxy)-1H-pyrazole-3-carboxylic acid], below 4.90.
